# From paper PMC10818380, “Triphenylphosphonium Analogs of Short Peptide Related to Bactenecin 7 and Oncocin 112 as Antimicrobial Agents” (Pharmaceutics, 2024)
# Where two headings read alike, the source gives them in different places. Square brackets hold non-standard residues; d marks the D form. Peptide text beside a SMILES is read from it. * marks the point of attachment. X2 = c1ccc([P+](CCCCCCCCCCN*)(c2ccccc2)c2ccccc2)cc1; X1 = c1ccc([P+](CCN*)(c2ccccc2)c2ccccc2)cc1
# Tests used:
# 70S E. coli ribosome = assay: Competition-binding assay, displacement of BODIPY-Bac(1–10), fluorescence anisotropy; details: read-out: apparent dissociation constant (KD)
# Protocol: 70S ribosomes were isolated from E. coli MRE600 cells according to a published procedure. The binding of BODIPY-Bac(1–10) to 70S E. coli ribosomes was performed according to the following procedure. BODIPY-Bac(1–10) (16 nM) was incubated with ribosomes (from 0.5 nM to 2000 nM) for 2 h at 26 °C in a buffer containing 20 mM of HEPES-KOH (pH 7.5), 50 mM of NH4Cl, 10 mM of Mg(CH3COO)2, 4 mM of β-mercaptoethanol, and 0.05% Tween-20. The binding affinities of peptides 1 and 2, their TPP analogs 3–5, as well as the control compounds for the E. coli ribosome were analyzed via a competition-binding assay using fluorescently labeled BODIPY-Bac(1–10) or BODIPY-ERY, as described before in [38, 54]. The fluorescent compound (16 nM) was mixed with ribosomes (84 nM for BODIPY-Bac(1–10) and 46 nM for BODIPY-ERY) in the buffer. Solutions of the tested compounds were added to the obtained complexes to final concentrations ranging from 0.01 to 100 µM. The mixtures were incubated for 2 h at 26 °C, and then the values of fluorescence anisotropy were measured with a VICTOR X5 Multilabel Plate Reader (PerkinElmer, Waltham, MA, USA) using a 384-well plate. The excitation wavelength was 485 nm, and the emission wavelength was 535 nm. From the data obtained, apparent dissociation constants were calculated.
# E. coli ΔsbmA = assay: Antibacterial activity on agar plates, ΔsbmA strain versus wild type; assay type: cell-based; details: Figure 4B
# Protocol: (§1) Antibiotic activity was also evaluated against the following strains: E. coli JW5503 ΔtolC (KanS) ermC, modified with the plasmid pKH80 [59], providing resistance to erythromycin due to the expression of ErmC methyltransferase; E. coli SQ171 ΔtolC transformed with the pAM552 plasmid; E. coli SQ171 ΔtolC modified with the pAM552 plasmid with A2059G substitution in the 23S rRNA; E. coli JW1052 ΔmdtH; E. coli JW0912 ΔompF; and E. coli JW0368 ΔsbmA [57]. The procedure was performed as described previously in [33]. In short, Petri dishes filled with LB solid medium containing a selective antibiotic and 1.5% agar were covered with the tested strains. After that, 1 µL of 10 mM water solutions of Bac(1–10), Bac(1–10, R/Y), Bac(1–10, R/Y)-Cn-TPP, TPP-C10-Bac(1–10, R/Y), and Onc112, LEV (25 μg/mL) in water, and ERY (5 mg/mL and 50 mg/mL) in DMSO were applied onto the agar plates. After overnight incubation at 37 °C, the plates were scanned using the ChemiDoc^TM Imagining System (Bio-Rad Laboratories, Hercules, CA, USA) in three channels (Cy2, Cy3, and Cy5). The obtained images were processed in the Image Lab^TM software (Version 6.0.1, Bio-Rad).
# B. subtilis 168 = assay: microbe, parasite or virus in culture; assay type: cell-based
# Protocol: (§2) The MIC values for Bac(1–10), Bac(1–10, R/Y), Bac(1–10, R/Y)-Cn-TPP, TPP-C10-Bac(1–10, R/Y), and Onc112 were determined via LB broth microdilution, as recommended by CLSI in the Methods for Dilution Antimicrobial Susceptibility Tests for Bacteria that Grow Aerobically, Approved Standard, 9th ed., CLSI document M07-A9, using in-house-prepared panels. The compounds were diluted in a 96-well microtiter plate to final concentrations ranging from 0.1 to 100 µM in a 200 µL aliquot of the bacterial suspension, followed by incubation at 37 °C for 18 h. The cell concentration was estimated according to the absorbance (A600). The measurements were performed with a VICTOR X5 Multilabel Plate Reader (PerkinElmer, Waltham, MA, USA). The following bacterial strains were used: E. coli BW25113, E. coli JW0368 ΔsbmA, B. subtilis 168, and B. subtilis CFR [39].
# B. subtilis CFR = assay: microbe, parasite or virus in culture; assay type: cell-based; details: CFR, 18 h
# Protocol: as §2
# E. coli BW25113 = assay: microbe, parasite or virus in culture; assay type: cell-based; details: E. coli BW25113, 37 °C, 18 h
# Protocol: as §2
# E. coli JW0368 ΔsbmA = assay: microbe, parasite or virus in culture; assay type: cell-based; details: for MIC: E. coli ∆sbmA, 37 °C, 18 h; for difference of MIC values, E. coli ΔsbmA versus wild type: ratio of MIC values of Table 1
# Protocol: as §2
# B. subtilis = assay: Membrane potential with fluorescent probe diS-C3-(5); assay type: cell-based; details: diS-C3-(5) fluorescence
# Protocol: The membrane potential of B. subtilis was assessed by measuring the fluorescence emitted by the potential-dependent probe, diS-C3-(5). Bacterial cells derived from the overnight culture of B. subtilis were inoculated into a fresh LB medium and allowed to grow for 24 h until reaching an optical density of 0.8 at 600 nm. Subsequently, the bacteria were subjected to a 20-fold dilution in a buffer comprising 100 mM of KCl and 10 mM of Tris, adjusted to a pH of 7.4. Fluorescence measurements were conducted at 670 nm (with excitation at 630 nm) using a Fluorat-02-Panorama fluorimeter manufactured by Lumex Instruments in St. Petersburg, Russia.
# [1] = system: E. coli ΔompF, E. coli ΔmdtH; assay: Antibacterial activity on agar plates, ΔompF and ΔmdtH strains versus wild type; assay type: cell-based; details: Figure 4
# Protocol: as §1
Compound,Kd (70S E. coli ribosome; CI (α = 0.05)) [nM],antibacterial activity on E. coli ΔsbmA compared with wild-type strain (E. coli ΔsbmA),"MIC (B. subtilis 168; B. subtilis 168, 37 °C, 18 h) [µM]",MIC (B. subtilis CFR) [µM],MIC (E. coli BW25113) [µM],MIC (E. coli JW0368 ΔsbmA) [µM],"difference of MIC values, E. coli ΔsbmA versus wild type (E. coli JW0368 ΔsbmA)",effect on membrane potential of B. subtilis (B. subtilis; concentration not given),"comparison of MIC values, E. coli ΔsbmA versus wild type (E. coli JW0368 ΔsbmA; MIC values of Table 1)",effect on membrane potential of B. subtilis (B. subtilis; 1 µM),Kd (70S E. coli ribosome; Figure S3B) [nM],growth inhibition of E. coli ΔompF and ΔmdtH compared with wild-type strain [1],"MIC (B. subtilis 168; 168, 18 h) [µM]"
"CC[C@H](C)[C@H](NC(=O)[C@H](CCCNC(=N)N)NC(=O)[C@@H](N)CCCNC(=N)N)C(=O)N[C@@H](CCCNC(=N)N)C(=O)N1CCC[C@H]1C(=O)N[C@@H](CCCNC(=N)N)C(=O)N1CCC[C@H]1C(=O)N1CCC[C@H]1C(=O)N[C@@H](Cc1ccc(O)cc1)C(=O)N[C@@H](CC(C)C)C(=O)NCC[P+](c1ccccc1)(c1ccccc1)c1ccccc1 [Compound 3, Bac(1–10, R/Y)-C2-TPP] (H-RRIRPRPPYL-X1; N-terminus assumed)",260 ± 30,a decrease in the antibacterial activity,12.5,50,26.3,>100,four,a decrease in the membrane potential,–,–,–,–,–
"CC[C@H](C)[C@H](NC(=O)[C@H](CCCNC(=N)N)NC(=O)[C@@H](N)CCCNC(=N)N)C(=O)N[C@@H](CCCNC(=N)N)C(=O)N1CCC[C@H]1C(=O)N[C@@H](CCCNC(=N)N)C(=O)N1CCC[C@H]1C(=O)N1CCC[C@H]1C(=O)N[C@@H](Cc1ccc(O)cc1)C(=O)N[C@@H](CC(C)C)C(=O)NCCCCCCCCCC[P+](c1ccccc1)(c1ccccc1)c1ccccc1 [Compound 4, Bac(1–10, R/Y)-C10-TPP] (H-RRIRPRPPYL-X2; N-terminus assumed)",250 ± 40,–,1.6,0.8,100,100,–,–,the same,rapid decrease in the membrane potential,–,–,–
"CC[C@H](C)[C@H](NC(=O)[C@@H](CCCNC(=N)N)NC(=O)[C@H](CCCNC(=N)N)NC(=O)[C@@H]1CCCN1C(=O)[C@@H]1CCCN1C(=O)[C@H](CCCNC(=N)N)NC(=O)[C@@H]1CCCN1C(=O)[C@H](CCCNC(=N)N)NC(=O)[C@@H]1CCCN1C(=O)[C@H](CC(C)C)NC(=O)[C@H](Cc1ccc(O)cc1)NC(=O)[C@@H]1CCCN1C(=O)[C@@H]1CCCN1C(=O)[C@H](CCCCN)NC(=O)[C@H](CC(=O)O)NC(=O)[C@@H](N)C(C)C)C(=O)N[C@@H](Cc1ccc(O)cc1)C(=O)N[C@@H](CC(N)=O)C(=O)N[C@H](CCCNC(=N)N)C(N)=O [Onc112, reference compound] (H-VDKPPYLPRPRPPR[dR]IYN[dR]-NH2; N-terminus assumed)",–,a decrease in the antibacterial activity,–,>50,11.6,>90,approximately eight,–,–,–,3 ± 1,no significant difference in the growth inhibition,>50
